We go through 20 molecules from patent publication US7112607B2, “Allosteric adenosine receptor modulators” (King Pharmaceuticals Research & Development, Inc., priority 1997, dated 2006).

The experiment deals with T1, human recombinant A1 adenosine receptors (Homo sapiens, UniProt P30542).
T1 construct: expressed in transfected cells; host or cells: Chinese hamster ovary (CHO) cells, CHO:huA1, G-418 selected
T1 sequence (P30542 1-326): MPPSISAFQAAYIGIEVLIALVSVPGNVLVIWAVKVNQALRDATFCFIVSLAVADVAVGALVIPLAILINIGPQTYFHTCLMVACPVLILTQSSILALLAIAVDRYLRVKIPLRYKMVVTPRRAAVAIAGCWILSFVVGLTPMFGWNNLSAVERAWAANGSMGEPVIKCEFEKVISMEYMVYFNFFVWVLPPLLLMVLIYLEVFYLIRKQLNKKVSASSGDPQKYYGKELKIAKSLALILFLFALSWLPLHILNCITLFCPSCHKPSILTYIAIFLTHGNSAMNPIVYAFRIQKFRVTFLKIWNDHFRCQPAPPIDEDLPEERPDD
Put plainly: Allosteric enhancement: reduction of cAMP content of CHO:huA1 cells (radioimmunoassay). The class given is cell-based. The settings on record: forskolin 1 μM, rolipram 20 μM, CPA 0.01 nM, adenosine deaminase, 6 min at 36° C.; for inhibition at 0.01 µM / inhibition at 0.1 µM / inhibition at 1 µM / inhibition at 10 µM: 0.1 h, read-out: Change in cAMP Content from Control (mean + SEM). On the procedure:
Chinese hamster ovary cells expressing human recombinant A1 adenosine receptors (CHO:huA1 cells) at a density of approximately 8000 fmol/mg protein were prepared as previously described (Kollias-Baker et al., (1997), J. Pharmacol. Exp. Ther. 281: 761–768) and aliquots of the cells at low passage numbers were frozen and stored in liquid nitrogen. When compounds were tested, an aliquot of CHO:huA1 cells were rapidly thawed after removal from liquid nitrogen, then grown in Ham's F12 culture medium with 10% fetal bovine serum and 0.5 mg/mL of antibiotic G-418 (Shryock, Ozeck, and Belardinelli (1998), Mol. Pharmacol 53: 886–893). Cells were passaged thrice weekly. Aliquots of cells were placed into 12-well plates with culture medium, serum, and antibiotic for 48 hours, by which time the cells had grown to a confluent monolayer.
Allosteric enhancement was measured as the action of a test compound at different concentrations (0.01, 0.1, 1 and 10 μM) to reduce the cAMP content of CHO:huA1 cells. To initiate an experiment, growth medium was removed from the 12-well plates and cells were washed once with warm Hanks' buffered saline. The wash solution was then removed and replaced with fresh Hanks' solution containing forskolin (1 μM), rolipram (20 μM), N^6-cyclopentyladenosine (CPA, 0.01 nM), adenosine deaminase (2 U/mL), and the test compound. Forskolin was used to stimulate the activity of adenylyl cyclase, rolipram to inhibit cAMP phosphodiesterase, adenosine deaminase to degrade endogenous adenosine, and CPA to cause a small increase of the number of activated adenosine receptors. After 6 min of incubation at 36° C. in the presence of test compound, the incubation solution was removed and hydrochloric acid (final concentration 50 mM) was added to terminate drug action.
The content of cAMP in acidified extracts of cells was determined by radioimmunoassay as previously described (Kollias-Baker et al., (1997), J. Pharmacol. Exp. Ther. 281: 761–768). Because the magnitude of the effects of allosteric enhancers on CHO:huA1 cells changed subtly with passage number and differed slightly among different aliquots of cells, the actions of the test compounds and the action of a reference compound (PD 81,723) were assessed in each experiment. The effect of each test compound on cAMP content is presented in Table 1 as a percentage of the value of cAMP content in the absence of drug (control, 100%). Each value is a mean±standard error of 6 determinations in each of the number of experiments indicated in the “n” column of the table.

As to `Nc1sc2c(c1C(=O)c1ccccc1)CCSC2` [Example 1, (2-Amino-4,7-dihydro-5H-thieno[2,3-c]thiopyran-3-yl)-phenyl-methanone], the inhibition at 0.01 µM (0.01 μM test compound) was -9 ± 4%. Moreover, where the note is “0.1 μM test compound”, the inhibition at 0.1 µM was found to be 6 ± 3%. For the same molecule, the inhibition at 1 µM (1 μM test compound) came out at 15 ± 2%. The inhibition at 10 µM (10 μM test compound) stood at 35 ± 2%.
In the same order, the values of `Nc1sc2c(c1C(=O)c1ccc(Cl)cc1)CCSC2` [Example 2, (2-Amino-4,7-dihydro-5H-thieno[2,3-c]thiopyran-3-yl)-(4-chlorophenyl)-methanone] are -15 ± 3%, 10 ± 4%, -16 ± 5% and 0.3 ± 5%.
For `Nc1sc2c(c1C(=O)c1ccc(Cl)cc1)CCS2` [Example 3, (2-Amino-4,5-dihydrothieno[2,3-b]thiophen-3-yl)-(4-chlorophenyl)-methanone], in that order: 1 ± 4%, -11 ± 4%, -1 ± 3% and 35 ± 4%.
On to `Nc1sc2c(c1C(=O)c1ccco1)CCCC2` [Example 4, (2-Amino-4,5,6,7-tetrahydrobenzo[b]thiophen-3-yl)-furan-2-yl-methanone], for which the inhibition at 0.01 µM (0.01 μM test compound) came out at 10 ± 2%. In addition, the inhibition at 0.1 µM (0.1 μM test compound) is -2 ± 6%. Moreover, the inhibition at 1 µM (1 μM test compound) was found to be 3 ± 6%. The inhibition at 10 µM (10 μM test compound) came out at 10 ± 7%.
In the case of `Nc1sc2c(c1C(=O)c1cccs1)CCCC2` [Example 5], the “Change in cAMP Content from Control (mean + SEM)” value is on record as −11 ± 3% (0.01 μM test compound), −11 ± 5% (0.1 μM test compound), −16 ± 3% (1 μM test compound) and −40 ± 2% (10 μM test compound).
In the case of `Nc1sc2c(c1C(=O)c1cccc3ccccc13)CCCC2` [Example 6, (2-Amino-4,5,6,7-tetrahydrobenzo[b]thiophen-3-yl)-naphthalen-1-yl-methanone], the inhibition at 0.01 µM (0.01 μM test compound) amounted to 11 ± 4%. Where the note is “0.1 μM test compound”, the inhibition at 0.1 µM worked out at 15 ± 4%. Moreover, the inhibition at 1 µM (1 μM test compound) stood at 22 ± 3%. Moreover, the inhibition at 10 µM (10 μM test compound) is 52 ± 3%.
In the same order, the values of `Nc1sc2c(c1C(=O)c1cccc3ccccc13)CCC2` [Example 7, (2-Amino-5,6-dihydro-4H-cyclopenta[b]thiophen-3-yl)-naphthalen-1-yl-methanone] are 0.6 ± 3%, 6 ± 1%, 29 ± 4% and 60 ± 1%.
In the same order, the values of `Cc1sc(N)c(C(=O)c2cccc3ccccc23)c1C` [Example 8, (2-Amino-4,5-dimethylthiophen-3-yl)-naphthalen-1-yl-methanone] are 0.6 ± 2%, 3 ± 3%, -6 ± 5% and 45 ± 2%.
In the case of `Nc1sc2c(c1C(=O)c1cccc3ccccc13)CCN(Cc1ccccc1)C2` [Example 9, (2-Amino-6-benzyl-4,5,6,7-tetrahydrothieno[2,3-c]pyridin-3-yl)-naphthalen-1-yl-methanone], the inhibition at 0.01 µM (0.01 μM test compound) amounted to 21 ± 3%. Moreover, the inhibition at 0.1 µM (0.1 μM test compound) was determined as 7 ± 4%. In addition, the inhibition at 1 µM (1 μM test compound) is 25 ± 4%. Besides, the inhibition at 10 µM (10 μM test compound) was -19 ± 2%.
With `CC(=O)Nc1sc2c(c1C(=O)c1ccco1)CCCC2` [Example 10, N-[3-(Furan-2-carbonyl)-4,5,6,7-tetrahydrobenzo[b]thiophen-2-yl]-acetamide], the inhibition at 0.01 µM (0.01 μM test compound) came out at 8 ± 5%. In addition, the inhibition at 0.1 µM (0.1 μM test compound) was found to be 14 ± 4%. Also, the inhibition at 1 µM (1 μM test compound) was 25 ± 5%. Moreover, under “10 μM test compound”, the inhibition at 10 µM is -8 ± 5%.
For `Nc1sc2c(c1C(=O)c1ccco1)CCC2` [Example 11, (2-Amino-5,6-dihydro-4H-cyclopenta[b]thiophen-3-yl)-furan-2-yl-methanone], in that order: -3 ± 4%, 14 ± 4%, 0.8 ± 3% and 23 ± 2%.
For `Nc1sc2c(c1C(=O)c1ccco1)CCN(Cc1ccccc1)C2` [Example 12, (2-Amino-6-benzyl-4,5,6,7-tetrahydrothieno[2,3-c]pyridin-3-yl)-furan-2-yl-methanone], the inhibition at 0.01 µM (0.01 μM test compound) was found to be 27 ± 4%. For the same molecule, where the note is “0.1 μM test compound”, the inhibition at 0.1 µM worked out at 0.6 ± 4%. Also, the inhibition at 1 µM (1 μM test compound) turned out to be 15 ± 3%. Moreover, the inhibition at 10 µM (10 μM test compound) came out at 8 ± 11%.
For `Cc1sc(N)c(C(=O)c2ccco2)c1C` [Example 13, (2-Amino-4,5-dimethylthiophen-3-yl)-furan-2-yl-methanone], in that order: 4 ± 5%, -11 ± 5%, 7 ± 5% and -5 ± 10%.
In the same order, the values of `Nc1sc2c(c1C(=O)c1cc3ccccc3o1)CCCC2` [Example 14, (2-Amino-4,5,6,7-tetrahydrobenzo[b]thiophen-3-yl)-benzofuran-2-yl-methanone] are 13 ± 5%, 3 ± 4%, 4 ± 3% and 5 ± 4%.
For `Nc1sc2c(c1C(=O)c1cc3ccccc3o1)CCC2` [Example 15, (2-Amino-5,6-dihydro-4H-cyclopenta[b]thiophen-3-yl)-benzofuran-2-yl-methanone], in that order: 5 ± 3%, 13 ± 3%, -3 ± 5% and 4 ± 6%.
Take `Nc1sc2c(c1C(=O)c1cc3ccccc3o1)CCN(Cc1ccccc1)C2` [Example 16, (2-Amino-6-benzyl-4,5,6,7-tetrahydrothieno[2,3-c]pyridin-3-yl)-benzofuran-2-yl-methanone]: the inhibition at 0.01 µM (0.01 μM test compound) was -4 ± 3%. Further, the inhibition at 0.1 µM (0.1 μM test compound) was -14 ± 4%. For the same molecule, the inhibition at 1 µM (1 μM test compound) worked out at 10 ± 2%. In addition, the inhibition at 10 µM (10 μM test compound) was -11 ± 4%.
Consider `Nc1sc2c(c1C(=O)c1ccccn1)CCC2` [Example 17], for which the “Change in cAMP Content from Control (mean + SEM)” value is reported as −3 ± 4% (0.01 μM test compound), 0.8 ± 7% (0.1 μM test compound), −1 ± 6% (1 μM test compound) and 2 ± 7% (10 μM test compound).
With `Cc1sc(N)c(C(=O)c2cc3ccccc3o2)c1C` [Example 18, (2-Amino-4,5-dimethylthiophen-3-yl)-benzofuran-2-yl-methanone], the inhibition at 0.01 µM (0.01 μM test compound) is -6 ± 5%. In addition, the inhibition at 0.1 µM (0.1 μM test compound) came out at 7 ± 4%. Moreover, the inhibition at 1 µM (1 μM test compound) was -16 ± 5%. For the same molecule, the inhibition at 10 µM (10 μM test compound) was -7 ± 6%.
In the same order, the values of `Nc1sc2c(c1C(=O)c1ccccn1)CCCC2` [Example 19, (2-Amino-4,5,6,7-tetrahydrobenzo[b]thiophen-3-yl)-pyridin-2-yl-methanone] are 2 ± 4%, 8 ± 5%, 11 ± 5% and -8 ± 3%.
In the same order, the values of `Nc1sc2c(c1C(=O)c1ccccn1)CCN(Cc1ccccc1)C2` [Example 20, (2-Amino-6-benzyl-4,5,6,7-tetrahydrothieno[2,3-c]pyridin-3-yl)-pyridin-2-yl-methanone] are -2 ± 4%, -7 ± 5%, -0.1 ± 5% and -31 ± 3%.
